From US10610573B2, “NDP-MSH for treatment of inflammatory and/or neurodegenerative disorders of the central nervous system” (Westfaelische Wilhelms—Universitaet Muenster, priority 2013, dated 2020)

What was measured:
[1] = system: MC-1R deficient mice; assay: EAE in MC-1R deficient mice; assay type: in vivo, mouse; conditions: treated as in Ex. 1
From the text: FIG. 6 Involvement of the melanocortin-1 receptor in effects of NDP-MSH on EAE progression. EAE was induced in MC-1R deficient mice as described in FIG. 1. Subsequently, disease development was monitored over time.
To investigate whether the NDP-MSH induced effects on the progression of EAE were mediated via binding to a functional MC-1R, EAE was induced in MC-1R deficient mice with a point mutation in the MC-1R gene resulting in a truncated protein (Roberts et al., 1993). Mice were immunized with MOG35-55, injected with pertussis toxin and treated with NDP-MSH or PBS as described in Ex. 1. Subsequently, disease development was monitored over time.

[2] = system: MOG-immunized mice; assay: MOG-induced EAE, preemptive NDP-MSH injection; assay type: in vivo, mouse; conditions: preemptive injection before onset of hind limb paralysis
From the text: The neuropeptide α-MSH is a potent immunomodulator capable of inducing immunosuppression and tolerance. Using the mouse model of experimental autoimmune encephalomyelitis (EAE) the present inventors systemically treated MOG-immunized mice with NDP-MSH before and after the onset of hind limb paralysis. […] Since signaling via melanocortin-1-receptor (MC-1R) mediates the immunomodulatory effects of α-MSH, EAE was induced in MC-1R-deficient mice.

[3] = system: Foxp3+ regulatory T cells; assay: Flow cytometry of Foxp3+ regulatory T cells from brain tissue of EAE mice; assay type: in vivo, mouse; conditions: day 17 post immunization, vs controls
Description: FIG. 4 Induction of functional regulatory T cells in the CNS by NDP-MSH treatment. Numbers, phenotype, and function of Foxp3^+ regulatory T cells isolated from brain tissue of NDP-MSH and PBS treated mice were analyzed. One representative dotplot (A) as well as the statistical evaluation from n=6 mice (B) is depicted. Cells are gated for CD4 and Foxp3 as well as Helios staining was performed after cell permeabilization. *, p<0.05 versus PBS treated mice.
Numbers, phenotype and function of Foxp3^+ regulatory T cells (Treg) isolated from brain tissue of NDP-MSH and PBS treated mice as described in Ex. 1 was analyzed at day 17 post immunization by flow cytometry analysis.

[4] = system: Nur77; assay: Nur77 expression in NDP-MSH stimulated neurons; assay type: cell-based; conditions: vs vehicle-treated controls
[5] = system: C57BL/6 mice with experimental autoimmune encephalomyelitis (EAE); assay: MOG35-55-induced EAE, therapeutic systemic NDP-MSH treatment; assay type: in vivo, mouse; conditions: 5 μg NDP-MSH i.v. every 48 h from clinical score 2-3 (day 12), vs PBS
Description: FIG. 1 Effect of systemic NDP-MSH treatment on ongoing Experimental Autoimmune Encephalomyelitis (EAE). C57BL/6 mice were actively immunized by subcutaneous injection of myelin oligodendrocyte glycoprotein (MOG35-55) emulsified in Complete Freund's Adjuvant and systemically treated with 5 μg NDP-MSH or PBS every 48 hours beginning at a clinical score of 2-3. Mice were monitored for clinical score (A) and body weight (B) and sacrificed at day 17. Data from n=17 mice in each group is depicted, *, p<0.05 versus PBS-treated controls.
To investigate whether NDP-MSH is able to inhibit autoimmunity and inflammation in organs different from the skin, such as the central nervous system (CNS), the mouse model of experimental autoimmune encephalomyelitis (EAE), a T cell-mediated inflammatory autoimmune disease resembling human multiple sclerosis, was used.
Therefore, C57BL/6 mice were actively immunized by subcutaneous injection of myelin oligodendrocyte glycoprotein (MOG35-55) emulsified in Complete Freund's Adjuvant at the back skin (day 0). At day 0 and day 2 mice received intraperitoneal injections of 400 ng pertussis toxin and disease development was monitored daily. […] All mice were sacrificed at day 17 and analyzed on a cellular and molecular level. […]

[6] = system: effector T cells; assay: Suppression of effector T cell proliferation in vitro by Treg from treated mice; assay type: cell-based, mouse
[7] = system: CD11c-DTR mice; assay: EAE in DC-depleted CD11c-DTR mice; assay type: in vivo, mouse; conditions: DC depleted by diphtheria toxin, 5 μg i.v. every 48 hours
Description: DC were depleted in C11c-DTR mice as described by Hochweller et al. (2008) by systemic treatment with diphtheria toxin. Subsequently, EAE was induced as described in FIG. 1. 5 μg NDP-MSH were injected intravenously every 48 hours and disease progression was monitored over time.

[8] = system: dendritic cells; assay: DC phenotype in regional lymph nodes of immunized mice; assay type: in vivo, mouse; conditions: vs PBS
Description: FIG. 5 Generation of tolerogenic dendritic cells by NDP-MSH treatment. The DC phenotype in regional lymph nodes from immunized NDP-MSH and PBS treated mice was analyzed. One representative dot plot (A) as well as the statistical evaluation from n=2-6 mice (B) is depicted. Cells are gated for MHCII and IL-10 as well as IFN-γ staining was performed after cell permeabilization. *, p<0.05 versus PBS treated mice.
Further, the DC phenotype in regional lymph nodes from immunized NDP-MSH and PBS treated mice was analyzed.

[9] = system: rat primary astrocytes and microglia; conditions: in vitro, via MC-4R signaling; cited from earlier work
[10] = system: brain tissue of EAE mice; assay: Histology and immunofluorescence of brain tissue from EAE mice; assay type: in vivo, mouse; conditions: day 17 post immunization, vs PBS
Description: FIG. 2 Histological analyses of brain tissue obtained from mice treated as described in FIG. 1. […] One representative image for each group (+NDP-MSH, +PBS) is shown.
Brain tissue from mice treated with NDP-MSH or PBS at day 17 post immunization obtained from Ex. 1 was analyzed. […] One representative overview (A) as well as a sectional enlargement (B) is depicted for each group. […] One representative image for each group is shown.

[11] = system: DEREG mice; assay: EAE in Treg-depleted DEREG mice; assay type: in vivo, mouse; conditions: Treg depleted by diphtheria toxin, 5 μg i.v. every 48 hours
From the text: Treg were depleted in DEREG mice as described by Lahl et al. (2007) by systemic treatment with diphtheria toxin. Subsequently, EAE was induced as described in FIG. 1.
Subsequently, EAE was induced as described in Ex. 1.

[12] = system: Th1 and Th17 cells in the CNS; assay: Flow cytometry of pathogenic Th1 and Th17 cells in the CNS of EAE mice; assay type: in vivo, mouse; conditions: day 17 post immunization, brain and spinal cord, n=8, vs PBS controls
Description: FIG. 3 Effect of NDP-MSH treatment of numbers of pathogenic Th1 and Th17 cells in the CNS. At day 17 post immunization brain and spinal cord from EAE mice treated with PBS and NDP-MSH as described for FIG. 1 were isolated. Cells were analyzed by multi-color flow cytometry using antibodies against CD4, IL-17, ROR-γt, IFN-γ and T-bet. One representative image (A) as well as the statistical evaluation from n=8 mice in each group (B) is shown, Cells are gated for CD4 and IL-17, ROR-γt, IFN-γ as well as T-bet staining was performed after cell permeabilization.
Reduced numbers of pathogenic Th1 and Th17 cells in the CNS from NDP-MSH treated mice compared to PBS-treated controls. At day 17 post immunization brain and spinal cord were isolated from PBS- and NDP-MSH-treated mice and single cell suspensions were prepared using density gradient centrifugation. Subsequently, cells were analyzed by multi-color flow cytometry using antibodies against CD4, IL-17, ROR-gt, IFN-g and T-bet. […] Cells are gated for CD4 and IL-17, ROR-gt, IFN-g as well as T-bet staining was performed after cell permeabilization.

[13] = system: Devic mice; assay: Spontaneous EAE model (Devic mice); assay type: in vivo, mouse
Description: FIG. 7 Devic mice at the age of 38 days and a clinical score of 7 (severe hind limb paralysis) were injected intravenously with 5 μg NDP-MSH every other day for 3 weeks. […] Disease progression was monitored over time.
To characterize the effects of NDP-MSH in a spontaneous EAE model Devic mice were used. Devic mouse mutants express transgenic T- and B-cell receptors specific for MOG and spontaneously develop EAE at the age of 4-5 weeks (Bettelli et al., 2006).
Starting at the age of 38 days when mice reached a clinical score of 7 (severe hind limb paralysis) animals were injected intravenously with 5 μg NDP-MSH every other day. […] Part of the mice almost completely recovered from disease. At day 60, NDP-MSH treatment was interrupted and mice were monitored for the onset of clinical symptoms.

[14] = system: primary mouse neurons; assay: Glutamate-stimulated primary neurons, apoptosis genes and neuronal damage; assay type: cell-based
Description: FIG. 10 Expression of pro-apoptotic (caspase-8) and anti-apoptotic (Bcl-2) genes in primary mouse neurons after treatment with […] Glutamat or 50 μM Glutamat+1 nM NDP-MSH. Primary murine neurons were stimulated with glutamate which results in apoptosis (increased expression of pro-apoptotic caspase-8 and a reduced expression of anti-apoptotic Bcl-2 relative to PBS-treated controls).
The neuroprotective role of NDP-MSH was further confirmed analyzing neurons from NDP-MSH-treated animals and vehicle-treated controls (isolated before and after MOG immunization) using histological staining tests for the detection of myelin, NeuN, act. Caspase 3 and TUNEL. Further, in vitro stimulation of neurons from embryonic mice with glutamate—which causes cell damage—in the presence or absence of NDP-MSH and subsequent histological staining tests for the detection of myelin, NeuN, act. […] Thus, a neuroprotective effect of NDP-MSH is a very likely explanation for the observed effect in the EAE model.

[15] = rat, in vivo; cited from earlier work
[16] = 50 μM glutamate + 1 nM NDP-MSH vs glutamate alone

For [Nle^4, D-Phe^7]-α-MSH [NDP-MSH], the “disease development (hind limb paralysis)” value [1] was “developed hind limb paralysis similar to PBS treated controls”, the EAE development [2] was “resistant to EAE development” and the “numbers of Foxp3+ Treg expressing Helios or CTLA-4 in brain tissue” value [3] was “present at higher numbers”. The Nur77 receptor expression [4] was “induction of the neuroprotective Nur77 receptor”, the body weight [5] was “started gaining weight after the first injection” and the “paralysis (clinical score)” value [5] was “recovered from paralysis”. The “function of Treg from treated mice: proliferation of effector T cells” value [6] was “efficiently inhibited the proliferation of effector T cells”, the disease onset [7] was “prevented disease onset” and the “DC expression of PD-L1 or IL-10” value [8] was “increased levels”. The “DC maturation markers CD80 and IFN-γ” value [8] was “down-regulated”, the “release of IL-10 and TGF-β” value [9] was “stimulates the release of IL-10 and TGF-β” and the “expression of tissue destruction marker APP in the brain” value ([10]; immunofluorescence) was “Dramatically reduced expression”. For the same substance, the “expression of tissue inflammation marker RILPL2 in the brain” value ([10]; immunofluorescence) was “Dramatically reduced expression”, the “mononuclear pro-inflammatory cells infiltrating the brain (H&E staining)” value [10] was “almost no cell infiltrates were detectable” and the “myelination of the brain (luxol fast blue staining)” value [10] was “tremendous re-myelination”. For the same substance, the disease severity [11] was “reduced disease severity”, the “reduced infiltration of Th1 cells in the CNS” value [12] was 2 factor and the “reduced infiltration of Th17 cells in the CNS” value [12] was 5 factor. For the same substance, the “disease course (clinical symptoms of EAE)” value ([13]; 5 μg i.v. every other day for 3 weeks from day 38, clinical score 7) was “significant amelioration of disease in all animals”, the body weight ([13]; 5 μg i.v. every other day for 3 weeks, vs PBS) was “gained weight” and the “disease recurrence after treatment interruption” value ([13]; treatment interrupted at day 60, several weeks without injection) was “no disease recurrence”. For the same substance, the “expression of anti-apoptotic Bcl-2” value [14, 16] was “increased expression of anti-apoptotic Bcl-2”, the “expression of pro-apoptotic caspase-8” value [14, 16] was “reduced expression of pro-apoptotic caspase-8” and the “glutamate-induced neuronal damage (myelin, NeuN, act. Caspase 3, TUNEL staining)” value ([14]; neurons from embryonic mice, in vitro) was “reduce the glutamate-induced neuronal damage”.

In the case of melanotan-II, the “nerve regeneration and neuroprotection” value [15] is listed as “effective in nerve regeneration and neuroprotection”.
